The values below come from paper PMC4791264, “Characterization and bioactivity of novel calcium antagonists - N-methoxy-benzyl haloperidol quaternary ammonium salt” (Oncotarget, 2015).

The structures appear in SMILES notation. pIC50: −log10 of the molar value. Like-named read-outs stand apart in the source and are kept apart here.

One series concerns rat myocardiocytes. As to the kind of experiment: Inhibition of KCl-induced extracellular calcium influx (Fluo-3 fluorescence, confocal microscopy). The class given is cell-based. The conditions noted are these: 60 mM KCl; for reduction of Ca^2+ fluorescent intensity, maximum degree: 0.1–10 μM. Here is the method:
Fluorescence intensity of Ca^2+ in myocardial cell was determined by laser scanning confocal microscopy (ACAS/ULTIMA312, Meridian Instruments) as previously described. Rat myocardiocytes were grown on 24-mm glass coverslips in 6-well plates in DMEM containing 10% FBS. After 24 h, the cells were incubated with Fluo 3-AM (20 μM) for 60 min in the dark at 37°C. Then, the cells were washed with HBSS three times to remove extracellular Fluo 3-AM. HBSS (HEPES-buffered physiological saline solution) contains 130 mM NaCl, 2.5 mM KCl, 1.2 mM MgCl2, 10 mM HEPES, 10 mM glucose, and 2 mM CaCl2, pH 7.4 (adjusted with NaOH). […] KCl was added into the cultured cells to induce the influx of extracellular Ca^2+ in HBSS and changes in fluorescence were recorded. Myocardiocytes were incubated for 30 min with 0.1, 1, and 10 μM compounds before adding KCl. Effect of compounds on KCl-induced changes in fluorescence was investigated.

The subject of another series is H9c2 cell. The series is described as follows: LDH in culture medium under hypoxia/reoxygenation, H9c2 cells. The class given is cell-based. The conditions noted are these: 1 × 10^−6 mol/L, vs H/R group (p < 0.01). Here is the method: (§1) Myocardiocytes H9c2 cell and the one which the L-type calcium channel gene was knock-out, the […]-/-) were incubated separately in culture plates. When cell confluence reached 85%, the cells were incubated for another 12 hours in DMEM medium with 0.5% FBS. Then cells were randomly divided into 6 groups, namely the control group, H/R group, DMSO group, H/R+X1(1 × 10^-6 mol/L) group, H/R+X2 (1 × 10^-6 mol/L) group and H/R+X3 (1 × 10^-6 mol/L) group. The hypoxic DMEM culture medium and reoxygenation medium were used in H/R process. The final volume was 500 uL. The compounds (X1, X2, X3) were administered continuously during the hypoxia/reoxygenation process. Finally, cell supernatant was collected and LDH was measured by colorimetric method according to the Kit instruction by manufacturer (Nanjin Jiancheng Lit. China).

Series [1] deals with T1, L-type calcium channels in rat ventricular myocytes (Rattus norvegicus, UniProt P0DP29+P22002).
T1 construct: reduced the amplitude of the L-type calcium current in rat myocardiocytes; endogenous in cells; host or cells: rat ventricular myocytes (single cells)
As to the kind of experiment: Inhibition of L-type calcium current (patch-clamp). The class given is cell-based. The conditions noted are these: 0.1 to 10 μM, rat myocardiocytes.

A further series deals with H9c2 cell (Cacnalc−/−). The series is described as follows: LDH in culture medium under hypoxia/reoxygenation, H9c2 (Cacnalc−/−) cells. The series is classed as cell-based. The conditions noted are these: 1 × 10^−6 mol/L. Here is the method: as §1
Series [2] concerns SD rats. As to the kind of experiment: Effect on rat hemodynamics (left ventricular pressure, heart rate). The conditions noted are these: anesthetized SD rats, 3 min after administration.
In series [3] the test system is isolated rat thoracic aortic rings. As to the kind of experiment: Vasodilation on KCl (60 mM)-contracted isolated rat thoracic aortic rings. The conditions noted are these: KCl (60 mM)-induced contraction of rat aortic rings; 0.1 to 10 μM. Here is the method:
The vasodilation activity of compounds was evaluated in isolated rat thoracic aortic rings according to the methods of Greenwood and Polster et al. The aortic rings were allowed to equilibrate in Krebs bicarbonate solution ((PSS), containing118.0 mM NaCl, 4.7 mM KCl, 1.2 mM KH2PO4, 1.2 mM MgSO4.7H2O, 5.0 mM glucose, 25.0 mM NaHCO3, and 2.5 mM CaCl2.7H2O at 37°C and were gassed with 95% O2 and 5% CO2 for 90 min at a testing tension. KCl (60 mM) was used to depolarize the aortic rings. When the amplitude of the contraction reached a plateau, compounds X1, X2, X3 were added. Cumulative concentration-response curves to all compounds were determined in the absence and presence of endothelium. Using tips of forceps, the endothelium was mechanically removed from some rings by gently rubbing the lumen, if absence of endothelium is needed. Acetylcholine was used to confirm the removal of endothelium from the aortic rings.

Series [4] concerns SD rats. The conditions noted are these: rat, in vivo.

Take `COc1ccc(C[N+]2(CCCC(=O)c3ccc(F)cc3)CCC(O)(c3ccc(Cl)cc3)CC2)cc1` (stereo not shown) [Compound X1]: in the series with rat myocardiocytes, the “reduction of Ca^2+ fluorescent intensity, maximum degree” value (“reduction … maximum degree” below) is on record as 76.5%. Besides, the “LDH under H/R” value in the series with H9c2 cell is “decreased”; in the series with H9c2 cell (Cacnalc−/−), “remained unchanged”. Further, the “maximum inhibition rate of L-type calcium current” value in series [1] was found to be 97.2%. Also, the pIC50 in series [1] was 6.33; in series [3], 6.36. Moreover, the HR in the series with SD rats [2] (0.25 mg/kg) is listed as 355 ± 61; in the series with SD rats [2] (0.5 mg/kg), 356 ± 55; in the series with SD rats [2] (1 mg/kg), 342 ± 51. The LVEDP is listed as 20.34 ± 3.06 in the series with SD rats [2] (0.25 mg/kg), 21.02 ± 3.08 with SD rats [2] (0.5 mg/kg) and 29.66 ± 4.33 in the series with SD rats [2] (1 mg/kg). Besides, the LVSP in the series with SD rats [2] (0.25 mg/kg) stood at 145.32 ± 20.08; with SD rats [2] (0.5 mg/kg), 145.38 ± 18.06; in the series with SD rats [2] (1 mg/kg), 132.32 ± 18.66. In series [3], the “maximum inhibition on the vascular ring contraction” value is 92.5%. The “+LVdp/dtmax” value in the series on SD rats [4] (0.25 mg/kg) worked out at 1043.01 ± 143.24; with SD rats [4] (0.5 mg/kg), 1011.02 ± 152.04; with SD rats [4] (1 mg/kg), 946.02 ± 132.23. In addition, the results for the “−LVdp/dtmax” value with SD rats [4] (0.25 mg/kg), in the series on SD rats [4] (0.5 mg/kg) and with SD rats [4] (1 mg/kg) were 899.04 ± 142.24, 908.21 ± 151.02 and 884.82 ± 148.09, respectively.
With `COc1cccc(C[N+]2(CCCC(=O)c3ccc(F)cc3)CCC(O)(c3ccc(Cl)cc3)CC2)c1` (stereo not shown) [Compound X2], the “reduction … maximum degree” value in the series with rat myocardiocytes turned out to be 53.6%. Besides, the “LDH under H/R” value was “decreased” with H9c2 cell and “remained unchanged” with H9c2 cell (Cacnalc−/−). Moreover, the “maximum inhibition rate of L-type calcium current” value in series [1] worked out at 82.8%. The results for the pIC50 in series [1] and in series [3] were 6.31 and 5.37, respectively. Moreover, the HR in the series with SD rats [2] (0.25 mg/kg) was 365 ± 59; in the series with SD rats [2] (0.5 mg/kg), 362 ± 63; with SD rats [2] (1 mg/kg), 356 ± 53. In addition, the figures for the LVEDP in the series with SD rats [2] (0.25 mg/kg), with SD rats [2] (0.5 mg/kg) and with SD rats [2] (1 mg/kg) were 22.12 ± 3.76, 22.08 ± 3.44 and 26.93 ± 3.26, respectively. The figures for the LVSP in the series on SD rats [2] (0.25 mg/kg), with SD rats [2] (0.5 mg/kg) and in the series with SD rats [2] (1 mg/kg) were 145.98 ± 16.42, 146.66 ± 18.04 and 138.94 ± 16.06, respectively. Further, the “maximum inhibition on the vascular ring contraction” value in series [3] is listed as 67.08%. Also, the “+LVdp/dtmax” value with SD rats [4] (0.25 mg/kg) is recorded as 1029.32 ± 144.08; in the series with SD rats [4] (0.5 mg/kg), 1022.14 ± 142.21; in the series on SD rats [4] (1 mg/kg) it was 902.89 ± 138.88. Also, the results for the “−LVdp/dtmax” value with SD rats [4] (0.25 mg/kg), with SD rats [4] (0.5 mg/kg) and in the series with SD rats [4] (1 mg/kg) were 982.13 ± 154.56, 984.12 ± 144.32 and 955.23 ± 146.08, respectively.
As for `COc1ccccc1C[N+]1(CCCC(=O)c2ccc(F)cc2)CCC(O)(c2ccc(Cl)cc2)CC1` (stereo not shown) [Compound X3], in the series with rat myocardiocytes, the “reduction … maximum degree” value was 24.53%. Further, the “LDH under H/R” value in the series on H9c2 cell is “decreased”; with H9c2 cell (Cacnalc−/−), “remained unchanged”. Besides, in series [1], the “maximum inhibition rate of L-type calcium current” value came out at 70.2%. The pIC50 was 6.14 in series [1] and 5.13 in series [3]. Also, the results for the HR in the series on SD rats [2] (0.25 mg/kg), in the series with SD rats [2] (0.5 mg/kg) and with SD rats [2] (1 mg/kg) were 358 ± 52, 362 ± 55 and 368 ± 54, respectively. Besides, the LVEDP with SD rats [2] (0.25 mg/kg) is listed as 23.86 ± 3.65; in the series with SD rats [2] (0.5 mg/kg), 24.91 ± 3.07; in the series on SD rats [2] (1 mg/kg) it was 23.69 ± 3.77. For the same compound, the LVSP with SD rats [2] (0.25 mg/kg) was 142.94 ± 18.08; in the series with SD rats [2] (0.5 mg/kg), 148.98 ± 20.02; in the series on SD rats [2] (1 mg/kg), 152.88 ± 21.04. In series [3], the “maximum inhibition on the vascular ring contraction” value worked out at 48.66%. The “+LVdp/dtmax” value is on record as 1129.28 ± 162.26 in the series with SD rats [4] (0.25 mg/kg), 1221.12 ± 170.02 with SD rats [4] (0.5 mg/kg) and 1248.36 ± 182.32 in the series with SD rats [4] (1 mg/kg). The figures for the “−LVdp/dtmax” value with SD rats [4] (0.25 mg/kg), with SD rats [4] (0.5 mg/kg) and with SD rats [4] (1 mg/kg) were 989.92 ± 161.23, 1021.23 ± 153.77 and 1022.15 ± 162.24, respectively.
For the compound `COc1ccc([C@@H]2Sc3ccccc3N(CCN(C)C)C(=O)[C@@H]2OC(C)=O)cc1` [Dil, diltiazem], in the series on SD rats [2] (0.25 mg/kg), the “+LVdp/dtmax” value is given as 1099.22 ± 142.66, the HR was 322 ± 25, the LVEDP stood at 30.21 ± 3.99 and the LVSP was 138.54 ± 21.35. Also, the “−LVdp/dtmax” value in the series with SD rats [2] (0.25 mg/kg) is 787.25 ± 74.25. For the same compound, in the series on SD rats [2] (0.5 mg/kg), the “+LVdp/dtmax” value is given as 922.11 ± 129.44, the HR was found to be 321 ± 29, the LVEDP is on record as 33.26 ± 4.26 and the LVSP is given as 130.25 ± 17.33. In addition, the “−LVdp/dtmax” value with SD rats [2] (0.5 mg/kg) stood at 689.76 ± 77.62. For the same compound, in the series with SD rats [2] (1 mg/kg), the “+LVdp/dtmax” value is 899.08 ± 128.32, the HR came out at 304 ± 47, the LVEDP was 38.51 ± 7.45 and the LVSP was determined as 127.55 ± 21.23. Also, the “−LVdp/dtmax” value in the series on SD rats [2] (1 mg/kg) worked out at 622.94 ± 84.42.
In the series on SD rats [2] (0.25 mg/kg), `COC(=O)C1=C(C)NC(C)=C(C(=O)OC)C1c1ccccc1[N+](=O)[O-]` [Nif, nifedipine] gave an HR of 372 ± 29, an LVEDP of 29.33 ± 5.56 and an LVSP of 137.21 ± 18.26. Further, in the series with SD rats [2] (0.5 mg/kg), the HR is reported as 397 ± 73, the LVEDP came to 33.64 ± 8.12 and the LVSP is 132.11 ± 11.10. Besides, in the series on SD rats [2] (1 mg/kg), the HR stood at 311 ± 54, the LVEDP was found to be 45.50 ± 6.43 and the LVSP was found to be 105.00 ± 12.23.
On to `COc1ccc(CCN(C)CCCC(C#N)(c2ccc(OC)c(OC)c2)C(C)C)cc1OC` (stereo not shown) [Ver, verapamil], for which, in the series on rat myocardiocytes (10 μM, positive control), the “reduction of Ca^2+ fluorescence intensities” value amounted to 86%. In the series on SD rats [2] (0.25 mg/kg), the “+LVdp/dtmax” value is recorded as 1022.49 ± 130.44, the HR is on record as 328 ± 28, the LVEDP is 25.39 ± 7.45 and the LVSP came out at 132.24 ± 12.74. The “−LVdp/dtmax” value with SD rats [2] (0.25 mg/kg) stood at 932.24 ± 95.54. Besides, in the series on SD rats [2] (0.5 mg/kg), the “+LVdp/dtmax” value came to 925.38 ± 172.37, the HR is 302 ± 77, the LVEDP is on record as 38.21 ± 8.18 and the LVSP came out at 112.74 ± 21.08. Moreover, in the series on SD rats [2] (0.5 mg/kg), the “−LVdp/dtmax” value was determined as 699.87 ± 91.11. In the series with SD rats [2] (1 mg/kg), the “+LVdp/dtmax” value came out at 885.32 ± 122.21, the HR stood at 298 ± 41, the LVEDP was 42.21 ± 6.23 and the LVSP came to 102.21 ± 14.21. Also, the “−LVdp/dtmax” value in the series with SD rats [2] (1 mg/kg) worked out at 657.80 ± 85.55.
